Reference: ChEMBL document CHEMBL1128187, “1 alpha,25-dihydroxyvitamin D3 analogs featuring aromatic and heteroaromatic rings: design, synthesis, and preliminary biological testing” (1995)

Key:
Type in all cases: functional
Rattus norvegicus [1] = species on record: Rattus norvegicus; assay: Patch clamp determination of calcium current in rat Osteosarcoma cells at 5.0 nM
Rattus norvegicus [2] = species on record: Rattus norvegicus; assay: Patch clamp determination of calcium current in rat Osteosarcoma cells at 50.0 nM
Rattus norvegicus [3] = species on record: Rattus norvegicus; assay: Patch clamp determination of calcium current in rat Osteosarcoma cells at 0.5 nM

Row | SMILES | Ca2+ current (Rattus norvegicus [1]) | Ca2+ current (Rattus norvegicus [2]) | Ca2+ current (Rattus norvegicus [3])
1 | C[C@H](CCCC(C)(C)O)[C@H]1CC[C@H]2C(c3ccc(CO)c(CO)c3)=CCC[C@]12C | 1.45 mV | 7.03 mV | -0.08 mV
2 | C[C@@H](COCCCC(C)(C)O)[C@H]1CC[C@H]2C(c3ccc(CO)c(CO)c3)=CCC[C@]12C | 0.15 mV | 0.63 mV | 0.02 mV
3 | C=C1/C(=C\C=C2/CCC[C@]3(C)[C@@H]([C@H](C)CCCC(C)(C)O)CC[C@@H]23)C[C@@H](O)C[C@@H]1O [CALCITRIOL] | 9.79 mV | 10.2 mV | 5.73 mV
